US20050191735A1, “Oxidoreductase” (priority 2003, published 2005)

What was measured:
[1] = system: recombinant Lactobacillus reuteri oxidoreductase; assay: Substrate spectrum in standard measurement mixture; assay type: biochemical; settings: reduction with NADPH; activity with ethyl 2-oxo-4-phenylbutyrate set to 100%
[2] = system: L. reuteri oxidoreductase; assay: Preparative conversion, coenzyme regeneration with Thermoanerobium brockii ADH; assay type: biochemical, Lactobacillus reuteri; settings: 4 ml substrate, 1 000 units oxidoreductase, room temperature, after 24 h
Description: For a preparative approach, a mixture of 4 ml of potassium phosphate buffer 100 mM, pH=7.0, 2 ml of isopropanol, 4 ml of ethyl 2-oxo-4-phenylbutyrate, 0.064 mg of NADP, 1 000 units of L. reuteri oxidoreductase and 10 mg of Thermoanerobium brockii ADH (Fluka, approximately 100 U, based on oxidation of 2-propanol) was incubated at room temperature with constant mixing for 24 h. […] 97% of the product was the corresponding S-alcohol.

[3] = system: L. reuteri oxidoreductase; assay: Preparative conversion, coenzyme regeneration with KRED 1004; assay type: biochemical, Lactobacillus reuteri; settings: 4 ml substrate, 1 000 units oxidoreductase, 1 mg KRED 1004, room temperature, after 2 h
Description: For a preparative approach, a mixture of 4 ml of potassium phosphate buffer 100 mM, pH=7.0, 2 ml of isopropanol, 4 ml of ethyl 2-oxo-4-phenylbutyrate, 0.064 mg of NADP, 1 000 units of L. reuteri oxidoreductase and 1 mg of KRED 1004 (Biocatalytics Inc, Pasadena) was incubated at room temperature with constant mixing for 2 h. […] 98% of the product was the corresponding S-alcohol.

For `CCOC(=O)C(=O)CCc1ccccc1` [Ethyl 2-oxo-4-phenyl-butyrate], which Relative activity % [1] is on record?
Its Relative activity % is 100%.

What about the “conversion to ethyl 2-hydroxy-4-phenylbutyrate” value [2] of the same compound?
The value was “completely converted”.

What about the “conversion to ethyl 2-hydroxy-4-phenylbutyrate” value [3] of the same compound?
The value was “completely converted”.
